Measured values as given in the NIST ThermoML archive (doi:10.1016/j.fluid.2011.09.020).

Settings: Liquid, Ebulliometric method (Recirculating still)

O=C(O)C(Cl)Cl [2,2-dichloroacetic acid]
Settings | vapor or sublimation pressure [kPa]
384.3 K | 5
388.3 K | 6
391.8 K | 7
394.8 K | 8
397.6 K | 9
400.2 K | 10
402.4 K | 11
404.3 K | 12
406.4 K | 13
408.3 K | 14
410.1 K | 15
414.1 K | 17.5
417.5 K | 20
423.5 K | 25
428.6 K | 30
437 K | 40

O=C(O)CCl [chloroethanoic acid]
Settings | vapor or sublimation pressure [kPa]
380.7 K | 5
384.7 K | 6
389.5 K | 7.5
391 K | 8
393.8 K | 9
396.3 K | 10
398.7 K | 11
400.7 K | 12
402.7 K | 13
404.6 K | 14
406.3 K | 15
410.2 K | 17.5
413.7 K | 20
419.5 K | 25
424.5 K | 30
432.6 K | 40
